Results published in patent US20020137929A1, “1 - (3-heterocyclylphenyl) isothiourea, -isourea, -guanidine and -amidine herbicidal agents” (Intellectual Property Department, BASF Aktiengesellschaft, priority 1998, published 2002).

Assays:
CASOB (Sicklepod) [1] = assay: Postemergence herbicidal evaluation; format: in vivo, Cassia obtusifolia; conditions: for herbicidal rating CASOB: postemergence
Outline: (§1)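 Rate range approx. 0.0156–0.500 kg/ha. Foliar application at 40 psi to ~2-week seedlings; surfactant 0.5% TWEEN 20 in 50/50 acetone/water. Evaluation 4–5 wk post-treatment by 0–9 visual injury score, means of replicate tests.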

[2] = system: TRZAWR (Wheat, Winter, cv Riband); assay: Preemergence herbicidal evaluation; format: in vivo, Triticum aestivum; conditions: rated 4-5 weeks after treatment; for TRZAWR rating: preemergence, 0-9 scale
Outline: (§2)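 In this greenhouse assay, monocot and dicot seeds are planted in soil and treated prior to emergence with an aqueous acetone spray (about 0.0156-0.500 kg/ha). Plants are assessed visually against control on a 0-9 scale after 4-5 weeks.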

GALAP (Galium) = assay: Postemergence herbicidal evaluation; format: in vivo, Galium aparine; conditions: for herbicidal rating GALAP: postemergence
Outline: as §1

[3] = system: GLXMAW (Soybean, Williams); assay: Preemergence herbicidal evaluation; format: in vivo, Glycine max, (L.) Merr. cv Williams; conditions: rated 4-5 weeks after treatment; for GLXMAW rating: preemergence, 0-9 scale
Outline: as §2

ABUTH (Velvetleaf) = assay: Preemergence herbicidal evaluation; format: in vivo, Abutilon theophrasti; conditions: rated 4-5 weeks after treatment; for ABUTH rating: preemergence, 0-9 scale
Outline: as §2

AMBEL (Ragweed, Common) = assay: Postemergence herbicidal evaluation; format: in vivo, Ambrosia artemisifolia; conditions: for herbicidal rating AMBEL: postemergence
Outline: as §1

CYPIR (Rice Flatsedge) = assay: Postemergence weed control under flooded paddy conditions; format: in vivo, Cyperus iria; conditions: postemergence weeds
Outline: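 Containers holding 3–5 cm weeds and rice at 1.5–2.5 leaves are flooded to 1.5–3 cm above soil. Compound in 50/50 v/v aqueous/acetone is then added directly to the water, about 0.0313–0.500 kg/ha. Plants are kept in the greenhouse and rated 0–9 visually at 3–4 weeks.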

[4] = system: IPOHE (Morningglory, Ivyleaf); assay: Preemergence herbicidal evaluation; format: in vivo, Ipomoea hederacea; conditions: rated 4-5 weeks after treatment; for IPOHE rating: preemergence, 0-9 scale
Outline: as §2

[5] = system: SAGPY (Arrowhead (Pygmaea)); assay: Preemergence weed control under flooded paddy conditions; format: in vivo, Sagittaria pygmaea; conditions: rated 3-4 weeks after treatment
Outline: (§3)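 Greenhouse paddy assay. Acetone/water (50/50 v/v) solutions dosed into flood water, equivalent to about 0.0313 to 0.500 kg/ha active ingredient, over seeds planted 0.5 cm deep in silt loam. Score: 0-9 visual, based on stand, vigor, malformation, size and chlorosis, 3 to 4 weeks after treatment.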

ZEAMX (Corn, Field) = assay: Preemergence herbicidal evaluation; format: in vivo, Zea mays; conditions: rated 4-5 weeks after treatment; for ZEAMX rating: preemergence, 0-9 scale
Outline: as §2

ECHCG (Barnyardgrass) = assay: Preemergence herbicidal evaluation; format: in vivo, Echinochloa crus-galli; conditions: rated 4-5 weeks after treatment; for ECHCG rating: preemergence, 0-9 scale
Outline: as §2

MOOVA (Monochoria) = assay: Preemergence weed control under flooded paddy conditions; format: in vivo, Monochoria vaginalis; conditions: rated 3-4 weeks after treatment
Outline: as §3

[6] = system: IPOHE (Morningglory, Ivyleaf); assay: Postemergence herbicidal evaluation; format: in vivo, Ipomoea hederacea; conditions: for herbicidal rating IPOHE: postemergence
Outline: as §1

CASOB (Sicklepod) [7] = assay: Preemergence herbicidal evaluation; format: in vivo, Cassia obtusifolia; conditions: rated 4-5 weeks after treatment; for CASOB rating: preemergence, 0-9 scale
Outline: as §2

## CCOC(=O)CN1C(=O)C(CC(=O)O)O/C1=N/c1cc(-n2c(=O)cc(C(F)(F)F)n(C)c2=O)c(F)cc1Cl (stereo not drawn) [Compound 41, 2-{{2-Chloro-5-[3,6-dihydro-3-methyl-2,6-dioxo-4-(trifluoromethyl)-1(2H)-pyrimidinyl]-4-fluoro-phenyl}imino}-4-oxo-3,5-oxazolidinediacetic acid, 3-ethyl ester]
CASOB (Sicklepod) [1]; Rate 0.0158 kg/ha
  Postemergence herbicidal rating CASOB: 1.0
CASOB (Sicklepod) [1]; Rate 0.0315 kg/ha
  Postemergence herbicidal rating CASOB: 1.0
CASOB (Sicklepod) [1]; Rate 0.0630 kg/ha
  Postemergence herbicidal rating CASOB: 5.0
[2]; rate 0.0156 kg/ha
  Preemergence herbicidal rating TRZAWR: 0.0
[2]; rate 0.0313 kg/ha
  Preemergence herbicidal rating TRZAWR: 0.0
[2]; rate 0.0625 kg/ha
  Preemergence herbicidal rating TRZAWR: 0.0
[2]; rate 0.1250 kg/ha
  Preemergence herbicidal rating TRZAWR: 0.0
[2]; rate 0.2500 kg/ha
  Preemergence herbicidal rating TRZAWR: 0.0
GALAP (Galium); Rate 0.0158 kg/ha
  Postemergence herbicidal rating GALAP: 1.0
GALAP (Galium); Rate 0.0315 kg/ha
  Postemergence herbicidal rating GALAP: 2.0
GALAP (Galium); Rate 0.0630 kg/ha
  Postemergence herbicidal rating GALAP: 5.0
[3]; rate 0.0156 kg/ha
  Preemergence herbicidal rating GLXMAW: 0.0
[3]; rate 0.0313 kg/ha
  Preemergence herbicidal rating GLXMAW: 1.0
[3]; rate 0.0625 kg/ha
  Preemergence herbicidal rating GLXMAW: 3.0
[3]; rate 0.1250 kg/ha
  Preemergence herbicidal rating GLXMAW: 2.0
[3]; rate 0.2500 kg/ha
  Preemergence herbicidal rating GLXMAW: 6.0
ABUTH (Velvetleaf); rate 0.0156 kg/ha
  Preemergence herbicidal rating ABUTH: 7.0
ABUTH (Velvetleaf); rate 0.0313 kg/ha
  Preemergence herbicidal rating ABUTH: 9.0
ABUTH (Velvetleaf); rate 0.0625 kg/ha
  Preemergence herbicidal rating ABUTH: 9.0
ABUTH (Velvetleaf); rate 0.1250 kg/ha
  Preemergence herbicidal rating ABUTH: 9.0
ABUTH (Velvetleaf); rate 0.2500 kg/ha
  Preemergence herbicidal rating ABUTH: 9.0
AMBEL (Ragweed, Common); Rate 0.0158 kg/ha
  Postemergence herbicidal rating AMBEL: 9.0
AMBEL (Ragweed, Common); Rate 0.0315 kg/ha
  Postemergence herbicidal rating AMBEL: 9.0
AMBEL (Ragweed, Common); Rate 0.0630 kg/ha
  Postemergence herbicidal rating AMBEL: 9.0
CYPIR (Rice Flatsedge); rate 0.0313 kg/ha, 3-4 weeks after treatment
  Herbicidal rating CYPIR: 0.0
CYPIR (Rice Flatsedge); rate 0.0625 kg/ha, 3-4 weeks after treatment
  Herbicidal rating CYPIR: 0.0
CYPIR (Rice Flatsedge); rate 0.1250 kg/ha, 3-4 weeks after treatment
  Herbicidal rating CYPIR: 0.0
CYPIR (Rice Flatsedge); rate 0.2500 kg/ha, 3-4 weeks after treatment
  Herbicidal rating CYPIR: 4.0
[4]; rate 0.0156 kg/ha
  Preemergence herbicidal rating IPOHE: 0.0
[4]; rate 0.0313 kg/ha
  Preemergence herbicidal rating IPOHE: 0.0
[4]; rate 0.0625 kg/ha
  Preemergence herbicidal rating IPOHE: 7.0
[4]; rate 0.1250 kg/ha
  Preemergence herbicidal rating IPOHE: 9.0
[4]; rate 0.2500 kg/ha
  Preemergence herbicidal rating IPOHE: 9.0
[5]; 0.0313 kg/ha
  Herbicidal rating SAGPY: 0.0
[5]; 0.0625 kg/ha
  Herbicidal rating SAGPY: 0.0
[5]; 0.1250 kg/ha
  Herbicidal rating SAGPY: 0.0
[5]; 0.2500 kg/ha
  Herbicidal rating SAGPY: 6.0
ZEAMX (Corn, Field); rate 0.0156 kg/ha
  Preemergence herbicidal rating ZEAMX: 0.0
ZEAMX (Corn, Field); rate 0.0313 kg/ha
  Preemergence herbicidal rating ZEAMX: 0.0
ZEAMX (Corn, Field); rate 0.0625 kg/ha
  Preemergence herbicidal rating ZEAMX: 1.0
ZEAMX (Corn, Field); rate 0.1250 kg/ha
  Preemergence herbicidal rating ZEAMX: 0.0
ZEAMX (Corn, Field); rate 0.2500 kg/ha
  Preemergence herbicidal rating ZEAMX: 2.0
ECHCG (Barnyardgrass); rate 0.0156 kg/ha
  Preemergence herbicidal rating ECHCG: 0.0
ECHCG (Barnyardgrass); rate 0.0313 kg/ha
  Preemergence herbicidal rating ECHCG: 0.0
ECHCG (Barnyardgrass); rate 0.0625 kg/ha
  Preemergence herbicidal rating ECHCG: 0.0
ECHCG (Barnyardgrass); rate 0.1250 kg/ha
  Preemergence herbicidal rating ECHCG: 0.0
ECHCG (Barnyardgrass); rate 0.2500 kg/ha
  Preemergence herbicidal rating ECHCG: 2.0
MOOVA (Monochoria); 0.0313 kg/ha
  Herbicidal rating MOOVA: 6.0
MOOVA (Monochoria); 0.0625 kg/ha
  Herbicidal rating MOOVA: 9.0
MOOVA (Monochoria); 0.1250 kg/ha
  Herbicidal rating MOOVA: 9.0
MOOVA (Monochoria); 0.2500 kg/ha
  Herbicidal rating MOOVA: 9.0
[6]; Rate 0.0158 kg/ha
  Postemergence herbicidal rating IPOHE: 9.0
[6]; Rate 0.0315 kg/ha
  Postemergence herbicidal rating IPOHE: 9.0
[6]; Rate 0.0630 kg/ha
  Postemergence herbicidal rating IPOHE: 9.0
CASOB (Sicklepod) [7]; rate 0.0156 kg/ha
  Preemergence herbicidal rating CASOB: 0.0
CASOB (Sicklepod) [7]; rate 0.0313 kg/ha
  Preemergence herbicidal rating CASOB: 0.0
CASOB (Sicklepod) [7]; rate 0.0625 kg/ha
  Preemergence herbicidal rating CASOB: 0.0
CASOB (Sicklepod) [7]; rate 0.1250 kg/ha
  Preemergence herbicidal rating CASOB: 9.0
CASOB (Sicklepod) [7]; rate 0.2500 kg/ha
  Preemergence herbicidal rating CASOB: 9.0

## CCS(=O)(=O)NC(=O)CC1SC(=Nc2cc(-n3c(=O)cc(C(F)(F)F)n(C)c3=O)c(F)cc2Cl)N(C)C1=O (stereo not drawn) [Compound 105, 2-{{2-Chloro-5-[3,6-dihydro-3-methyl-2,6-dioxo-4-(trifluoromethyl)-1(2H)-pyrimidinyl]-4-fluorophenyl}imino}-N-(ethylsulfonyl)-3-methyl-4-oxo-5-thiazolidineacetamide]
CASOB (Sicklepod) [1]; rate 0.0156 kg/ha
  herbicidal rating CASOB: 0.0
CASOB (Sicklepod) [1]; rate 0.0313 kg/ha
  herbicidal rating CASOB: 0.0
CASOB (Sicklepod) [1]; rate 0.0625 kg/ha
  herbicidal rating CASOB: 0.0
CASOB (Sicklepod) [1]; rate 0.1250 kg/ha
  herbicidal rating CASOB: 1.0
[2]; 0.1250 kg/ha
  TRZAWR rating: 0.0
[2]; 0.2500 kg/ha
  TRZAWR rating: 0.0
[2]; 0.5000 kg/ha
  TRZAWR rating: 0.0
GALAP (Galium); rate 0.0156 kg/ha
  herbicidal rating GALAP: 0.0
GALAP (Galium); rate 0.0313 kg/ha
  herbicidal rating GALAP: 0.0
GALAP (Galium); rate 0.0625 kg/ha
  herbicidal rating GALAP: 1.0
GALAP (Galium); rate 0.1250 kg/ha
  herbicidal rating GALAP: 2.0
[3]; 0.1250 kg/ha
  GLXMAW rating: 0.0
[3]; 0.2500 kg/ha
  GLXMAW rating: 0.0
[3]; 0.5000 kg/ha
  GLXMAW rating: 0.0
ABUTH (Velvetleaf); 0.1250 kg/ha
  ABUTH rating: 7.0
ABUTH (Velvetleaf); 0.2500 kg/ha
  ABUTH rating: 9.0
ABUTH (Velvetleaf); 0.5000 kg/ha
  ABUTH rating: 9.0
AMBEL (Ragweed, Common); rate 0.0156 kg/ha
  herbicidal rating AMBEL: 0.0
AMBEL (Ragweed, Common); rate 0.0313 kg/ha
  herbicidal rating AMBEL: 0.0
AMBEL (Ragweed, Common); rate 0.0625 kg/ha
  herbicidal rating AMBEL: 3.0
AMBEL (Ragweed, Common); rate 0.1250 kg/ha
  herbicidal rating AMBEL: 9.0
CYPIR (Rice Flatsedge); Rate 0.0313 kg/ha, rated 3 to 4 weeks after treatment
  Herbicidal rating CYPIR: 5.0
CYPIR (Rice Flatsedge); Rate 0.0625 kg/ha, rated 3 to 4 weeks after treatment
  Herbicidal rating CYPIR: 7.0
CYPIR (Rice Flatsedge); Rate 0.1250 kg/ha, rated 3 to 4 weeks after treatment
  Herbicidal rating CYPIR: 7.0
CYPIR (Rice Flatsedge); Rate 0.2500 kg/ha, rated 3 to 4 weeks after treatment
  Herbicidal rating CYPIR: 9.0
[4]; 0.1250 kg/ha
  IPOHE rating: 0.0
[4]; 0.2500 kg/ha
  IPOHE rating: 3.0
[4]; 0.5000 kg/ha
  IPOHE rating: 4.0
[5]; 0.0313 kg/ha
  SAGPY herbicidal effect rating: 3.0
[5]; 0.0625 kg/ha
  SAGPY herbicidal effect rating: 5.0
[5]; 0.1250 kg/ha
  SAGPY herbicidal effect rating: 5.0
[5]; 0.2500 kg/ha
  SAGPY herbicidal effect rating: 7.0
ZEAMX (Corn, Field); 0.1250 kg/ha
  ZEAMX rating: 0.0
ZEAMX (Corn, Field); 0.2500 kg/ha
  ZEAMX rating: 1.0
ZEAMX (Corn, Field); 0.5000 kg/ha
  ZEAMX rating: 2.0
ECHCG (Barnyardgrass); 0.1250 kg/ha
  ECHCG rating: 0.0
ECHCG (Barnyardgrass); 0.2500 kg/ha
  ECHCG rating: 0.0
ECHCG (Barnyardgrass); 0.5000 kg/ha
  ECHCG rating: 1.0
MOOVA (Monochoria); 0.0313 kg/ha
  MOOVA herbicidal effect rating: 6.0
MOOVA (Monochoria); 0.0625 kg/ha
  MOOVA herbicidal effect rating: 7.0
MOOVA (Monochoria); 0.1250 kg/ha
  MOOVA herbicidal effect rating: 7.0
MOOVA (Monochoria); 0.2500 kg/ha
  MOOVA herbicidal effect rating: 9.0
[6]; rate 0.0156 kg/ha
  herbicidal rating IPOHE: 5.0
[6]; rate 0.0313 kg/ha
  herbicidal rating IPOHE: 9.0
[6]; rate 0.0625 kg/ha
  herbicidal rating IPOHE: 9.0
[6]; rate 0.1250 kg/ha
  herbicidal rating IPOHE: 9.0
CASOB (Sicklepod) [7]; 0.1250 kg/ha
  CASOB rating: 0.0
CASOB (Sicklepod) [7]; 0.2500 kg/ha
  CASOB rating: 0.0
CASOB (Sicklepod) [7]; 0.5000 kg/ha
  CASOB rating: 0.0
